Patent US6855716B2, “Dihydropyrimidine compounds and compositions containing the same” (Ajinomoto Co., Inc., priority 1999, dated 2005)

Key:
N-type calcium channel [1] = target: T1, N-type calcium channel (Homo sapiens, UniProt Q00975); assay: Antagonistic activity on N-type calcium channel (fluorescence dye method); assay type: cell-based
N-type calcium channel [2] = target: T1, N-type calcium channel; assay: N-type calcium channel antagonistic activity, changed procedure (fluorescence dye method, calculated from inhibition rates); assay type: cell-based; details: IMR-32 cells, 60 mM KCl stimulation, Table 3, read-out: N-type inhibition pIC50 (converted)

T1 sequence (Q00975 whole entry): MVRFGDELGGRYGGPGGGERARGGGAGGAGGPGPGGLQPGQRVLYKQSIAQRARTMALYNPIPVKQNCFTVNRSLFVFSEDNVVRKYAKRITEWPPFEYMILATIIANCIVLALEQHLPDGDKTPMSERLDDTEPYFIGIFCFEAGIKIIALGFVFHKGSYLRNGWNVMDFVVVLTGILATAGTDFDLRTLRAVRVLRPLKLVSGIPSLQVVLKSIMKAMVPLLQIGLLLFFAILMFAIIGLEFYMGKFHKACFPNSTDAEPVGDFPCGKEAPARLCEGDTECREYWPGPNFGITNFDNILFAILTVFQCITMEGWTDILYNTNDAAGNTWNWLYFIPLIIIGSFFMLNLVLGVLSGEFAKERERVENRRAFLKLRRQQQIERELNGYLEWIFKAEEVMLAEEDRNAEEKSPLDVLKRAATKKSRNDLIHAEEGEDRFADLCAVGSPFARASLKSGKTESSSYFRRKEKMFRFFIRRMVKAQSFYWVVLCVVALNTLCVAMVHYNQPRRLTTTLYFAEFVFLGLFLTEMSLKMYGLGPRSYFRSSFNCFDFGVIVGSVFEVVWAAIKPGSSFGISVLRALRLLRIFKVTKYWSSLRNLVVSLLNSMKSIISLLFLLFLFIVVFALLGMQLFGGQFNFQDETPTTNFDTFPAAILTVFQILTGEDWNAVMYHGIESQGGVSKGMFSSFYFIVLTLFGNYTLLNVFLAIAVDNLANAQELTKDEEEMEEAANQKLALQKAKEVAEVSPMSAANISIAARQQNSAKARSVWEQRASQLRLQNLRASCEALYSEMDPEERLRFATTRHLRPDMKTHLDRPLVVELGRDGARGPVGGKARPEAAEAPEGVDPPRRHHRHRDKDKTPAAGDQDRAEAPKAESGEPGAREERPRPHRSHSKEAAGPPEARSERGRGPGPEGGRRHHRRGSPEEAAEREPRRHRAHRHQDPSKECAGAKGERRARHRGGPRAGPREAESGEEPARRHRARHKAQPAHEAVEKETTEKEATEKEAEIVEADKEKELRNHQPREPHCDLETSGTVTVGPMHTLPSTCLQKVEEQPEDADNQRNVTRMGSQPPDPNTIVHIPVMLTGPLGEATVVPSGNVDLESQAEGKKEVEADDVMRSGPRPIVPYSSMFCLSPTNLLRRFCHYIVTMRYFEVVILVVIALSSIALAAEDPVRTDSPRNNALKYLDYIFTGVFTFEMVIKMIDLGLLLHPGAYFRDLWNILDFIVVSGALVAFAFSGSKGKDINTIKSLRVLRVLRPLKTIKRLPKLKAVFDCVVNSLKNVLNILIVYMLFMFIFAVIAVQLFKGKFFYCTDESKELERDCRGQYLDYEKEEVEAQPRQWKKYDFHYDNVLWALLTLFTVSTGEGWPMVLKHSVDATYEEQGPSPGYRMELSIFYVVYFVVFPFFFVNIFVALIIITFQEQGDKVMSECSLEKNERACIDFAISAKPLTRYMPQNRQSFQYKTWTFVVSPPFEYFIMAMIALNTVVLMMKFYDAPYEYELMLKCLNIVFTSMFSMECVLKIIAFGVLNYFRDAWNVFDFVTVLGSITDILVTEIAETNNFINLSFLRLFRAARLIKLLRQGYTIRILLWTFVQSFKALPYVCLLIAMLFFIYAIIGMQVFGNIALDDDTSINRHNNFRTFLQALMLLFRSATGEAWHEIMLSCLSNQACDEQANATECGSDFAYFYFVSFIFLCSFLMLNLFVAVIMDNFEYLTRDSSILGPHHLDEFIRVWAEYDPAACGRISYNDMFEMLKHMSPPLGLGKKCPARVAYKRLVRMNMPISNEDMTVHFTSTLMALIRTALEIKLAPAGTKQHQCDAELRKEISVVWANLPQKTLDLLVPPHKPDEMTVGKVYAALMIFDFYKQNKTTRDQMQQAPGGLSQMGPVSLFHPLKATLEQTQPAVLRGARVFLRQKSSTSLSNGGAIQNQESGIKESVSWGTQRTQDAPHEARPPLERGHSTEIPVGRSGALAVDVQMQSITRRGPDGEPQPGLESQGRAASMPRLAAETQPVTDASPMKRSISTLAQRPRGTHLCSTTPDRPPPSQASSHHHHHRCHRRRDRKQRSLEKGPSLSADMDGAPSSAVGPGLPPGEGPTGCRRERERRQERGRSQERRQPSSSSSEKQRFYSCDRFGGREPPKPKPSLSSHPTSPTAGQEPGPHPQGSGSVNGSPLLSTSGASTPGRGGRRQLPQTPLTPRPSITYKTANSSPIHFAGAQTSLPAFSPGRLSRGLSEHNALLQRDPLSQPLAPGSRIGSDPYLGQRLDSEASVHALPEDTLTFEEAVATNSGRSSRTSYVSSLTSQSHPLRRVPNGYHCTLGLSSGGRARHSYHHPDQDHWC
T1 sequence (P54284 whole entry partner): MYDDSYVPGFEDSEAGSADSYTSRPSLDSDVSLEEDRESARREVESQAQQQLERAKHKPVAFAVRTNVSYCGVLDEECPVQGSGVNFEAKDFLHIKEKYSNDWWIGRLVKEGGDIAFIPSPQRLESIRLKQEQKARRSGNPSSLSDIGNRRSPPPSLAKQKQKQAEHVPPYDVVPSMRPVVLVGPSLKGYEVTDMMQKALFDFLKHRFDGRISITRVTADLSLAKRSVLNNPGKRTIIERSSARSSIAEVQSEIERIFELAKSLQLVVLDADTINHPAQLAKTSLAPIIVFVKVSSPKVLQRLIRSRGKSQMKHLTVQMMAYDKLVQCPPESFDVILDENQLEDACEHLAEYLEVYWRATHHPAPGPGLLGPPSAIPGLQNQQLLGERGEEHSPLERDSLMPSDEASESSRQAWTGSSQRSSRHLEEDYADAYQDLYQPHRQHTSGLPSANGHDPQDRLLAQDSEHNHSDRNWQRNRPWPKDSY
T1 sequence (P54289 25-956 partner limits assumed): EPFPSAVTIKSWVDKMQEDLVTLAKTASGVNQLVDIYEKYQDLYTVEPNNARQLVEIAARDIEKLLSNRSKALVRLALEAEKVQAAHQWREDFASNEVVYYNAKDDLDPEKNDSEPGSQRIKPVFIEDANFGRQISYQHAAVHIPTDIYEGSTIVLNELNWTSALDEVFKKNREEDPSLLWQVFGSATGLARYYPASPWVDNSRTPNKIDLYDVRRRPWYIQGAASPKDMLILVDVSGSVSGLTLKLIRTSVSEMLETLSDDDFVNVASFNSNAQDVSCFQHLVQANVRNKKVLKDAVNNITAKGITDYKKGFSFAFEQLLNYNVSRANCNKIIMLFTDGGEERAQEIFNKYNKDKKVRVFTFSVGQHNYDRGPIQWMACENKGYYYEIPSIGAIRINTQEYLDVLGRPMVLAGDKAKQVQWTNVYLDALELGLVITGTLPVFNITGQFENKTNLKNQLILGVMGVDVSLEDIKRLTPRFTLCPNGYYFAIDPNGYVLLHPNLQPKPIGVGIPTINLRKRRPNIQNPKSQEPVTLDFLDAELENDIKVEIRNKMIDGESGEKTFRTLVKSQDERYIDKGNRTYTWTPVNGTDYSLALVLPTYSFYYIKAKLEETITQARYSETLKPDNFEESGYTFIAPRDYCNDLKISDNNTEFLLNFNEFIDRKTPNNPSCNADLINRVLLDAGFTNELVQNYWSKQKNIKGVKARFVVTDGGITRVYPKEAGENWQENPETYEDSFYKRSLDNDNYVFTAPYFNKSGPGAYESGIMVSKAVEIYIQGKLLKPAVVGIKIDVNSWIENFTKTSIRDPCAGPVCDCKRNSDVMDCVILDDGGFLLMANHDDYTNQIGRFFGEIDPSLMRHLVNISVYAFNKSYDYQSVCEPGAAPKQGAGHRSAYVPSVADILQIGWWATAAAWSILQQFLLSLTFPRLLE
T1 sequence (P54289 957-1103 partner limits assumed): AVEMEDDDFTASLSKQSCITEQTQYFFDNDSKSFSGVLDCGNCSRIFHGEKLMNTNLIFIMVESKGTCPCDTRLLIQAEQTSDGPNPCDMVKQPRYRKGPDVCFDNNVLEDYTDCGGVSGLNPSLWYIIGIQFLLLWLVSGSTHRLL

Row | SMILES | IC50 (N-type calcium channel [1]) [nM] | IC50 (N-type calcium channel [2]) [nM]
1 | CC1=C(C(=O)NCCC(c2ccccc2)c2ccccc2)C(c2cccc(Cl)c2)NC(=O)N1 (stereo not shown) [Example 3, 4-(3-chlorophenyl)-6-methyl-2-oxo-1,2,3,4-tetrahydropyrimidine-5-carboxylic acid (3,3-diphenylpropyl)amide] | 891 | 2510
2 | CCOC(=O)CN1C(=O)NC(C)=C(C(=O)NC/C=C/c2ccccc2)C1c1cccc(Cl)c1 (stereo not shown) [Example 45, ethyl [6-(3-chlorophenyl)-4-methyl-2-oxo-5-(3-phenyl-2-propene-1-ylcarbamoyl)-3,6-dihydro-2H-pyrimidine-1-yl]acetate] | – | 3980
3 | CC1=C(C(=O)NCCC(c2ccccc2)c2ccccc2)C(c2ccc(Cl)c(Cl)c2)N=C(c2cccnc2)N1 (stereo not shown) [Example 64, 4-(3,4-dichlorophenyl)-6-methyl-2-pyridine-3-yl-1,4-dihydropyrimidine-5-carboxylic acid (3,3-diphenylpropyl)amide] | – | 1260
4 | O=C(NC/C=C/c1ccccc1)C1=C(COCCC2CCCCC2)NC(c2ccccc2)=NC1c1cccc(Cl)c1 (stereo not shown) [Example 2, 4-(3-chlorophenyl)-6-[(2-cyclohexylethoxy)methyl]-2-phenyl-5-[(3-phenyl-2-propene-1-yl)-carbamoyl]-1,4-dihydropyrimidine] | 5890 | –
5 | CC1=C(C(=O)NC/C=C/c2ccccc2)C(c2ccc(Cl)c(Cl)c2)N=C(c2ccccc2)N1 (stereo not shown) [Example 75, 4-(3,4-dichlorophenyl)-6-methyl-2-phenyl-1,4-dihydropyrimidine-5-carboxylic acid (3-phenyl-2-propene-1-yl)amide] | – | 2000
6 | COCC1=C(C(=O)NCCCc2ccccc2)C(c2cccc(Cl)c2)NC(=O)N1 (stereo not shown) [Example 6, 4-(3-chlorophenyl)-6-methoxymethyl-2-oxo-1,2,3,4-tetrahydropyrimidine-5-carboxylic acid (3-phenylpropyl)amide] | 977 | 5010
7 | [N-]=[N+]=NCCOCC1=C(C(=O)NCCC(c2ccccc2)c2ccccc2)C(c2cccc(Cl)c2)NC(=O)N1 (stereo not shown) [Example 15, 6-(2-azidoethoxymethyl)-4-(3-chlorophenyl)-2-oxo-1,2,3,4-tetrahydropyrimidine-5-carboxylic acid (3,3-diphenylpropyl)amide] | – | 2510
8 | CC1=C(C(=O)NC/C=C/c2ccccc2)C(c2cccc(Cl)c2)N=C(c2ccccc2)N1 (stereo not shown) [Example 68, 4-(3-chlorophenyl)-6-methyl-2-phenyl-1,4-dihydropyrimidine-5-carboxylic acid (3-phenyl-2-propene-1-yl)amide] | – | 1260
9 | CC1=C(C(=O)NCCC(c2ccccc2)c2ccccc2)C(c2cccc(Cl)c2)N=C(c2ccccc2)N1 (stereo not shown) [Example 67, 4-(3-chlorophenyl)-6-methyl-2-phenyl-1,4-dihydro-pyrimidine-5-carboxylic acid (3,3-diphenylpropyl)amide] | – | 1580
10 | O=C(NCCC(c1ccccc1)c1ccccc1)C1=C(COCCC2CCCCC2)NC(c2ccccc2)=NC1c1cccc(Cl)c1 (stereo not shown) [Example 1, 4-(3-chlorophenyl)-6-[(2-cyclohexylethoxy)methyl]-5-(3,3-diphenylpropylcarbamoyl)-2-phenyl-1,4-dihydropyrimidine] | 1260 | 7940
